Assay results from US10968218B2, “Tetrahydropyridopyrimidines for the treatment and prophylaxis of hepatitis B virus infection” (Hoffmann-La Roche Inc., priority 2016, dated 2021).

Experiments:
[1] = test system: HBsAg; experiment: HBsAg assay (CLIA of secreted HBsAg in HepG2.2.15 culture supernatant); format: cell-based, HBV; conditions: Hepatitis B virus
Method: (§1) HepG2.2.15 cells (Acs et al. Proc Natl Acad Sci USA, 84, (1987), 4641-4), a constitutively HBV-expressing cell line were cultured in DMEM+Glutamax-I medium (Invitrogen, Carlsbad, Calif., USA), supplemented with 10% fetal bovine serum (Invitrogen) and G418 (Invitrogen) at a final concentration of 200 mg/L and maintained in 5% CO2 at 37° C.
HepG2.2.15 cells were seeded in duplicate into white, 96-well plates at 1.5×10^4 cells/well. The cells were treated with a three-fold serial dilution series of the compounds in DMSO. The final DMSO concentration in all wells was 1% and DMSO was used as no drug control.
The HBsAg chemiluminescence immunoassay (CLIA) kit (Autobio Diagnostics Co., Zhengzhou, China, Catalog number: CL0310-2) was used to measure the levels of secreted HBV antigens semi-quantitatively. For the detection 50 μL/well culture supernatant was used and HBsAg was quantified using HBsAg chemiluminescence immunoassay (CLIA) kit (Autobio Diagnostics Co., Zhengzhou, China, Catalog number: CL0310-2), 50 μL of the supernatant was transferred to the CLIA assay plate and 50 μL of enzyme conjugate reagent was added into each well. The plates were sealed and gently agitated for 1 hour at room temperature. The supernatant-enzyme-mixture was discarded and wells were washed 6 times with 300 μL of PBS. The residual liquid was removed by plating the CLIA plate right side down on absorbent tissue paper. 25 μL of substrates A and B were added to each well. Luminance was measured using a luminometer (Mithras LB 940 Multimode Microplate Reader) after 10 minutes incubation. Dose-response curves were generated and the IC50 value was extrapolated by using the E-WorkBook Suite (ID Business Solutions Ltd., Guildford, UK). The IC50 was defined as the compound concentration at which HBsAg secretion was reduced by 50% compared to the no drug control.
The compounds according to formula I were tested for their capacity to inhibit HBsAg as described herein.

[2] = test system: HBV DNA; experiment: HBV DNA assay (real-time qPCR/TaqMan of extracellular HBV DNA, HepG2.2.15 cells); format: cell-based; conditions: Hepatitis B virus, 144 h; Anti HBV DNA production activity in HepG2.2.15 cells, supernatant, six days after treatment
Method: as §1
The assay employs real-time qPCR (TaqMan) to directly measure extracellular HBV DNA copy number in the cell supernatant. HepG2.2.15 cells were plated in 96-well microtiter plates before treatment with complete medium (DMEM, Glutamax, 10% FBS, 1% Penicillin/Streptomycin, 250 μg/mL Genetycin, final DMSO concentration is 1%). Only the interior wells were utilized to reduce “edge effects” observed during cell culture, the exterior wells were filled with complete medium to help minimize sample evaporation. The HepG2.2.15 cells were treated 1 h later with various concentrations of a test compound in duplicate (top concentration used at 5 μM, 2 μM or 0.5 μM according to the HBsAg IC50 observed, with 1/3 successive dilutions (total of 10 dilutions). Six days following the initial administration of the test compound, the cell culture supernatant was collected; DNA extraction was performed by automated system (Magnapure) and then used in a real-time qPCR/TaqMan assay to determine HBV DNA copy numbers. Antiviral activity was calculated from the reduction in HBV DNA levels (IC50). The compounds of the present invention were tested for their capacity to inhibit HBV DNA as described herein.

Row | Structure (SMILES) | IC50 [1] | IC50 [2]
1 | COc1cc(F)nc(N2CCc3nc(-c4cscn4)ncc3C2C)c1 (stereo not drawn) [Example 5, 4-[6-(6-Fluoro-4-methoxy-2-pyridyl)-5-methyl-7,8-dihydro-5H-pyrido[4,3-d]pyrimidin-2-yl]thiazole] | 23 nM | 8.7 nM
2 | COc1cc(F)nc(N2CCc3nc(-c4ncc[nH]4)ncc3C2C)c1 (stereo not drawn) [Example 26, 6-(6-Fluoro-4-methoxy-2-pyridyl)-2-(1H-imidazol-2-yl)-5-methyl-7,8-dihydro-5H-pyrido[4,3-d]pyrimidine] | 31 nM | 5.7 nM
3 | COc1cc(F)nc(N2CCc3nc(-c4ncn[nH]4)ncc3C2C)c1 (stereo not drawn) [Example 43, 6-(6-Fluoro-4-methoxy-2-pyridyl)-5-methyl-2-(1H-1,2,4-triazol-5-yl)-7,8-dihydro-5H-pyrido[4,3-d]pyrimidine] | 8 nM | 1.7 nM
4 | CC1c2cnc(-c3cscn3)nc2CCN1c1cc(F)nc(N2CCN(S(C)(=O)=O)CC2)c1 (stereo not drawn) [Example 20, 4-[6-[2-fluoro-6-(4-methylsulfonylpiperazin-1-yl)-4-pyridyl]-5-methyl-7,8-dihydro-5H-pyrido[4,3-d]pyrimidin-2-yl]thiazole] | 13 nM | 20.3 nM
5 | COc1cc(F)nc(N2CCc3nc(-c4csc(C)n4)ncc3C2C)c1 (stereo not drawn) [Example 15, 4-[6-(6-fluoro-4-methoxy-2-pyridyl)-5-methyl-7,8-dihydro-5H-pyrido[4,3-d]pyrimidin-2-yl]-2-methyl-thiazole] | 1520 nM | 
6 | CC1c2cnc(-c3cscn3)nc2CCN1c1cc(F)nc(OCC2CC2)c1 (stereo not drawn) [Example 31, 4-[6-[2-(cyclopropylmethoxy)-6-fluoro-4-pyridyl]-5-methyl-7,8-dihydro-5H-pyrido[4,3-d]pyrimidin-2-yl]thiazole] | 117 nM | 
7 | COc1cc(N2CCc3nc(-c4nccn4C)ncc3C2)cc(F)c1F [Example 1, 6-(3,4-Difluoro-5-methoxy-phenyl)-2-(1-methylimidazol-2-yl)-7,8-dihydro-5H-pyrido[4,3-d]pyrimidine] | 1160 nM | 
8 | CC1c2cnc(-c3cscn3)nc2CCN1c1cc(N(C)C)cc(F)n1 (stereo not drawn) [Example 11, 2-Fluoro-N,N-dimethyl-6-(5-methyl-2-thiazol-4-yl-7,8-dihydro-5H-pyrido[4,3-d]pyrimidin-6-yl)pyridin-4-amine] | 26 nM | 
9 | CC1c2cnc(-c3cscn3)nc2CCN1c1cc(F)nc(N2CCNC(=O)C2)c1 (stereo not drawn) [Example 28, 4-[6-fluoro-4-(5-methyl-2-thiazol-4-yl-7,8-dihydro-5H-pyrido[4,3-d]pyrimidin-6-yl)-2-pyridyl]piperazin-2-one] | 42 nM | 
10 | CC1c2cnc(-c3cscn3)nc2CCN1c1cc(N2CCOCC2)cc(F)n1 (stereo not drawn) [Example 13, 4-[2-fluoro-6-(5-methyl-2-thiazol-4-yl-7,8-dihydro-5H-pyrido[4,3-d]pyrimidin-6-yl)-4-pyridyl]morpholine] | 33 nM | 
11 | COc1cc(F)nc(N2CCc3nc(-n4nccn4)ncc3C2C)c1 (stereo not drawn) [Example 3, 6-(6-Fluoro-4-methoxy-2-pyridyl)-5-methyl-2-(triazol-2-yl)-7,8-dihydro-5H-pyrido[4,3-d]pyrimidine] | 666 nM | 
12 | CC1c2cnc(-c3cscn3)nc2CCN1c1cc(F)cc(N2CCOCC2)n1 (stereo not drawn) [Example 14, 4-[4-fluoro-6-(5-methyl-2-thiazol-4-yl-7,8-dihydro-5H-pyrido[4,3-d]pyrimidin-6-yl)-2-pyridyl]morpholine] | 74 nM | 
13 | COC1CCN(c2cc(F)nc(N3CCc4nc(-c5cscn5)ncc4C3C)c2)C1 (stereo not drawn) [Example 24, 4-[6-[6-fluoro-4-(3-methoxypyrrolidin-1-yl)-2-pyridyl]-5-methyl-7,8-dihydro-5H-pyrido[4,3-d]pyrimidin-2-yl]thiazole] | 23 nM | 
14 | COc1cc(F)nc(N2CCc3nc(-c4cc[nH]n4)ncc3C2C)c1 (stereo not drawn) [Example 27, 6-(6-Fluoro-4-methoxy-2-pyridyl)-5-methyl-2-(1H-pyrazol-3-yl)-7,8-dihydro-5H-pyrido[4,3-d]pyrimidine] | 230 nM | 
15 | CC1c2cnc(-c3cscn3)nc2CCN1c1cc(F)nc(OCC(F)F)c1 (stereo not drawn) [Example 34, 4-[6-[2-(2,2-difluoroethoxy)-6-fluoro-4-pyridyl]-5-methyl-7,8-dihydro-5H-pyrido[4,3-d]pyrimidin-2-yl]thiazole] | 140 nM | 
16 | COc1cc(F)nc(N2CCc3nc(-n4ccnn4)ncc3C2C)c1 (stereo not drawn) [Example 2, 6-(6-Fluoro-4-methoxy-2-pyridyl)-5-methyl-2-(triazol-1-yl)-7,8-dihydro-5H-pyrido[4,3-d]pyrimidine] | 22900 nM | 
17 | COc1cc(F)nc(N2CCc3nc(-c4cnc(C)s4)ncc3C2C)c1 (stereo not drawn) [Example 16, 5-[6-(6-fluoro-4-methoxy-2-pyridyl)-5-methyl-7,8-dihydro-5H-pyrido[4,3-d]pyrimidin-2-yl]-2-methyl-thiazole] | 25800 nM | 
